We go through two molecules from EP0481320A1, “Novel cyclobutane derivatives” (NIPPON KAYAKU KABUSHIKI KAISHA, priority 1990, dated 1992).

The experiment deals with herpes simplex 1 virus (HSV-1). Kind of experiment: Plaque reduction test of antiviral activity in Vero cells. The class given is cell-based. The note with it: Vero cells infected with 100-150 PFU; agar overlay with test compound; 37°C for 72 hours; plaque count. The protocol:
Antiviral activity against herpes simplex 1 virus (HSV-1), which is a DNA virus, was tested by the following method. Vero cells (originating from kidney cells of African Green Monkey) spread in a monolayer onto 6-wells multiplate were infected with 100-150 PFU (Plaque Forming Units) of the virus. After a 1-hour adsorption period at 37°C, an agar medium (Eagle's minimum essential medium containing 1.5% agar) containing respective concentrations of the test compound (obtained in Example 4) was overlaid thereonto, and cultured in a 5% (V/V) carbon dioxide incubator at 37°C for 72 hours. The number of plaques formed was counted, from which the 50% inhibition concentration (IC₅₀) was determined.
(Plaque reduction counts the foci of infection that form in a cell layer.)

With `CC(O)C1C(CO)CC1n1cnc2c(=O)[nH]c(N)nc21` (single isomer, unassigned) [4-1, 9-[(1β,2α,3β)-2-(1-hydroxyethyl)-3-hydroxymethyl-1-cyclobutyl]guanine-(1)], the “IC₅₀ (µg/ml) (HSV-1)” value amounted to 45.2 µg/mL. For `CC(O)C1C(CO)CC1n1cnc2c(=O)[nH]c(N)nc21` (single isomer, unassigned) [4-2, 9-[(1β,2α,3β)-2-(1-hydroxyethyl)-3-hydroxymethyl-1-cyclobutyl]guanine-(2)], the “IC₅₀ (µg/ml) (HSV-1)” value worked out at 0.163 µg/mL.
